Assay results as given in patent publication US7332200B1, “Permeabilizing biofilms” (The General Hospital Corporation, priority 1999, dated 2008).

System: A. viscosus in biofilms
Assay: Phototoxicity (bacterial killing, colony counts) of methylene blue on A. viscosus biofilms with red light, with or without a stress wave
Format: cell-based
Method: The biofilms were grown on enamel surfaces as described in Example 1. Biofilms were incubated with methylene blue for 1 or 5 minutes and exposed to stress waves (one pulse), after which they were exposed to 666 nm red light with a fluence of 15 J/cm^2 at an irradiance of 50 mW/cm^2. In control samples, biofilms were treated only with methylene blue, or were treated with methylene blue and exposed to red light, but without stress waves. An argon ion laser with an emission of 514.5. nm was used to pump a dye laser. The laser light was coupled into a 1.0 mm quartz fiber and appropriate spot sizes were created with an objective lens.
After illumination, adherent bacteria from the samples as treated above were scraped from the enamel surfaces with a sterile blade and dispersed in trypticase soy broth. Serial dilutions were prepared, and 100 μl aliquots were spread over the surfaces of blood agar plates. Survival fractions from each biofilm were calculated by counting the colonies on the plates and dividing by the number of colonies from dark controls incubated with the drug and kept at room temperature for periods equal to irradiation time. Other controls were: 1) biofilms untreated with methylene blue, light, or stress waves; 2) biofilms exposed only to a stress wave; 3) biofilms exposed to light without methylene blue; and 4) biofilms exposed to light after incubation with methylene blue.

Q: How did the “bacteria associated with biofilms killed” value (five-minute incubation with 50 μg/ml methylene blue, red light, no stress wave) turn out when CN(C)c1ccc2nc3ccc(=[N+](C)C)cc-3sc2c1 [methylene blue] was run?
A: 57%

Q: What about the “bacteria associated with biofilms killed” value (five-minute incubation with 50 μg/ml methylene blue, stress wave (one pulse) and 666 nm red light 15 J/cm^2) of the same molecule?
A: 99%

Q: What about the “bacteria associated with biofilms killed” value (one-minute incubation with 50 μg/ml methylene blue, red light, no stress wave) of the same molecule?
A: 34%

Q: What about the “bacteria associated with biofilms killed” value (one-minute incubation with 50 μg/ml methylene blue, stress wave (one pulse) and red light) of the same molecule?
A: 96.5%
